Data as given in DBAASP.
Values after ≈ are worked out from the molar mass of the structure shown.

Assays:
Assay in all cases: ≥ marks a high value that may be exact or a test limit, other limits are often not marked, values filed in µg/mL are converted to µM
Escherichia coli BL21AI = tested on: Escherichia coli BL21AI
[1] = tested on: Micrococcus luteus ATCC 10240
Staphylococcus xylosus = tested on: Staphylococcus xylosus
[2] = tested on: Escherichia coli DH5alpha
Micrococcus luteus = tested on: Micrococcus luteus
[3] = tested on: Bacillus subtilis ATCC 9372
Neurospora crassa = tested on: Neurospora crassa
[4] = tested on: Bacillus anthracis Sterne 34F2
[5] = tested on: Burkholderia thailandensis
[6] = tested on: Pseudomonas aeruginosa ATCC 27853
[7] = tested on: Staphylococcus aureus ATCC BAA-44
[8] = tested on: Staphylococcus aureus ST1065
[9] = tested on: Enterococcus faecalis ATCC 29212
[10] = tested on: Escherichia coli ATCC 25922
Escherichia coli ML-35p = tested on: Escherichia coli ML-35p
[11] = tested on: Staphylococcus aureus ATCC 43300
[12] = tested on: Candida parapsilosis ATCC 22019
[13] = tested on: Acinetobacter baumannii ATCC 19606
[14] = tested on: Klebsiella pneumoniae ATCC 13883
[15] = tested on: Streptococcus pyogenes ATCC 19615
[16] = tested on: Staphylococcus aureus ATCC 25923
Saccharomyces cerevisiae = tested on: Saccharomyces cerevisiae
[17] = tested on: Staphylococcus aureus ATCC 29213
[18] = tested on: Klebsiella aerogenes ATCC 13048
[19] = tested on: Bacillus cereus ATCC 11778
[20] = tested on: Salmonella enterica subsp. enterica serovar Typhimurium ATCC 14028
[21] = tested on: Escherichia coli KCTC 1682
[22] = tested on: Staphylococcus epidermidis KCTC 1917
Enterococcus faecium = tested on: Enterococcus faecium
[23] = tested on: Pseudomonas aeruginosa KCTC 1637
[24] = tested on: Bacillus subtilis KCTC 3068
Staphylococcus aureus = tested on: Staphylococcus aureus
[25] = tested on: Salmonella typhimurium KCTC 1926
[26] = tested on: Staphylococcus aureus KCTC 1621
[27] = tested on: Xanthomonas axonopodis pv. glycines ISBF 327
[28] = tested on: Staphylococcus aureus ATCC 29313

**Q.** For `CC[C@H](C)[C@H](NC(=O)[C@H](C)NC(=O)[C@H](CCCN=C(N)N)NC(=O)[C@@H]1CCCN1C(=O)[C@@H]1CCCN1C(=O)[C@H](CCCN=C(N)N)NC(=O)[C@@H]1CCCN1C(=O)[C@H](CCCN=C(N)N)NC(=O)[C@@H]1CCCN1C(=O)[C@H](CC(C)C)NC(=O)[C@H](Cc1ccc(O)cc1)NC(=O)[C@@H]1CCCN1C(=O)[C@@H]1CCCN1C(=O)[C@H](CCCCN)NC(=O)[C@H](CC(=O)O)NC(=O)[C@@H](N)C(C)C)C(=O)N[C@@H](Cc1ccc(O)cc1)C(=O)N[C@@H](CC(N)=O)C(=O)N[C@@H](CCCN=C(N)N)C(N)=O` [VDKPPYLPRPRPPRAIYNR], which MIC (Escherichia coli BL21AI) is on record?
**A.** 13.9 µM (≈ 32 µg/mL)

**Q.** And the MIC [1]?
**A.** 6.94 µM (≈ 16 µg/mL)

**Q.** `NCCCC[C@H](NC(=O)[C@H](CCCN=C(N)N)NC(=O)[C@H](CCCCN)NC(=O)[C@H](CO)NC(=O)CNC(=O)[C@H](CO)NC(=O)CNC(=O)[C@H](CO)NC(=O)[C@H](CCCCN)NC(=O)[C@H](CCCN=C(N)N)NC(=O)[C@@H](N)CCCCN)C(=O)O` [KRKSGSGSKRK] was tested. Which MIC (Staphylococcus xylosus) did it give?
**A.** ≥ 64 µM

**Q.** And the MIC [2]?
**A.** ≥ 64 µM

**Q.** With `CC[C@H](C)[C@H](NC(=O)[C@@H]1CCCN1C(=O)CNC(=O)[C@@H]1CCCN1C(=O)[C@H](CCCN=C(N)N)NC(=O)[C@@H]1CCCN1C(=O)[C@H](CCC(N)=O)NC(=O)[C@H](CC(N)=O)NC(=O)[C@@H]1CCCN1C(=O)[C@H](CC(N)=O)NC(=O)[C@H](Cc1ccccc1)NC(=O)[C@@H]1CCCN1C(=O)[C@H](CO)NC(=O)[C@@H]1CCCN1C(=O)[C@H](CCCN=C(N)N)NC(=O)[C@@H](NC(=O)[C@H](CC(=O)O)NC(=O)[C@H](Cc1ccccc1)NC(=O)[C@@H](NC(=O)[C@@H]1CCCN1C(=O)CNC(=O)[C@H](CCC(N)=O)NC(=O)[C@H](Cc1cnc[nH]1)NC(=O)[C@H](CCCN=C(N)N)NC(=O)[C@@H](N)Cc1cnc[nH]1)[C@@H](C)CC)[C@@H](C)O)C(=O)N[C@@H](Cc1ccc(O)cc1)C(=O)O` [HRHQGPIFDTRPSPFNPNQPRPGPIY] as the compound, how does the MIC (Micrococcus luteus) read?
**A.** 0.707 µM (≈ 2.14 µg/mL)

**Q.** What about the MIC [3] of the same compound?
**A.** ≥ 100 µM

**Q.** What about the MIC (Neurospora crassa) of the same compound?
**A.** 0.707 µM (≈ 2.14 µg/mL)

**Q.** What about the MIC [4] of the same compound?
**A.** ≥ 100 µM

**Q.** And the MIC [5]?
**A.** ≥ 50 µM

**Q.** Which results are given for `CC[C@H](C)[C@H](NC(=O)CNC(=O)[C@H](CO)NC(=O)CN)C(=O)N[C@@H](CC(C)C)C(=O)N[C@H](C(=O)N[C@@H](CC(C)C)C(=O)N[C@H](C(=O)N[C@@H](CCCCN)C(=O)N[C@@H](CCCN=C(N)N)C(=O)N[C@@H](CCCCN)C(=O)O)[C@@H](C)CC)[C@@H](C)CC` [GSGILILIKRK]?
**A.** MIC (Staphylococcus xylosus): ≥ 64 µM; MIC [2]: ≥ 64 µM

**Q.** What does the source list for `CC[C@H](C)[C@H](NC(=O)[C@H](Cc1cnc[nH]1)NC(=O)[C@@H]1CCCN1C(=O)[C@@H](NC(=O)[C@H](CC(C)C)NC(=O)[C@H](CO)NC(=O)[C@H](CC(C)C)NC(=O)[C@@H](N)Cc1ccccc1)[C@@H](C)CC)C(=O)N[C@H](C(=O)N[C@@H](CO)C(=O)NCC(=O)N[C@H](C(=O)N[C@@H](C)C(=O)N[C@@H](CO)C(=O)N[C@@H](CC(C)C)C(=O)N[C@@H](C)C(=O)N[C@@H](CCCCN)C(=O)N[C@@H](Cc1cnc[nH]1)C(=O)N[C@@H](Cc1ccccc1)C(N)=O)C(C)C)C(C)C` [FLSLIPHIVSGVASLAKHF]?
**A.** MIC [6]: 200 µM (≈ 407 µg/mL); MIC [7]: 6.25 µM (≈ 12.7 µg/mL); MIC [8]: 6.25 µM (≈ 12.7 µg/mL); MIC [9]: 25 µM (≈ 50.9 µg/mL); MIC [10]: 25 µM (≈ 50.9 µg/mL); MIC (Escherichia coli ML-35p): 30 µM (≈ 61.1 µg/mL); MIC [11]: 6.25 µM (≈ 12.7 µg/mL); MIC [12]: ≥ 50 µM; MIC [13]: 6.25 µM (≈ 12.7 µg/mL); MIC [14]: 25 µM (≈ 50.9 µg/mL); MIC [15]: 1.56 µM (≈ 3.18 µg/mL); MIC [16]: 6.25 µM (≈ 12.7 µg/mL); MIC (Saccharomyces cerevisiae): 6.25 µM (≈ 12.7 µg/mL)

**Q.** `CC[C@H](C)[C@H](N)C(=O)N[C@@H](CC(C)C)C(=O)NCC(=O)N[C@@H](CCCCN)C(=O)N[C@H](C(=O)N[C@@H](Cc1c[nH]c2ccccc12)C(=O)N[C@@H](CCC(=O)O)C(=O)NCC(=O)N[C@H](C(=O)N[C@@H](CCC(=O)O)C(=O)N[C@@H](CO)C(=O)N[C@@H](CC(C)C)C(=O)N[C@@H](Cc1ccccc1)C(N)=O)[C@@H](C)CC)[C@@H](C)CC` [ILGKIWEGIESLF] was tested. Which MIC [10] did it give?
**A.** > 66.5 µM

**Q.** And the MIC [17]?
**A.** > 66.5 µM

**Q.** And the MIC [18]?
**A.** ≥ 66.5 µM

**Q.** And the MIC [19]?
**A.** ≥ 66.5 µM

**Q.** And the MIC [20]?
**A.** > 66.5 µM

**Q.** What does the source list for `CC[C@H](C)[C@H](N)C(=O)N[C@@H](CC(C)C)C(=O)NCC(=O)N[C@@H](C)C(=O)N[C@H](C(=O)N[C@@H](Cc1c[nH]c2ccccc12)C(=O)N[C@@H](CC(N)=O)C(=O)NCC(=O)N[C@H](C(=O)N[C@@H](CCCCN)C(=O)N[C@@H](CO)C(=O)N[C@@H](CC(C)C)C(=O)N[C@@H](Cc1ccccc1)C(N)=O)C(C)C)C(C)C` [ILGAVWNGVKSLF]?
**A.** MIC [10]: > 71.2 µM; MIC [17]: > 71.2 µM; MIC [18]: ≥ 71.2 µM; MIC [19]: ≥ 71.2 µM; MIC [20]: > 71.2 µM

**Q.** `NCCCC[C@H](NC(=O)[C@H](CCCCN)NC(=O)[C@H](Cc1ccccc1)NC(=O)[C@@H]1CCCN1C(=O)[C@H](Cc1c[nH]c2ccccc12)NC(=O)[C@H](Cc1c[nH]c2ccccc12)NC(=O)[C@H](Cc1c[nH]c2ccccc12)NC(=O)[C@@H]1CCCN1C(=O)[C@H](Cc1ccccc1)NC(=O)[C@H](CCCCN)NC(=O)[C@@H](N)CCCCN)C(=O)O` [KKFPWWWPFKK] was tested. Which MIC [21] did it give?
**A.** 5.07 µM (≈ 8 µg/mL)

**Q.** What about the MIC [22] of the same compound?
**A.** 0.634 µM (≈ 1 µg/mL)

**Q.** And the MIC (Enterococcus faecium)?
**A.** 5.07 µM (≈ 8 µg/mL)

**Q.** And the MIC [23]?
**A.** 5.07 µM (≈ 8 µg/mL)

**Q.** What about the MIC [24] of the same compound?
**A.** 1.27 µM (≈ 2 µg/mL)

**Q.** What about the MIC (Staphylococcus aureus) of the same compound?
**A.** 3.58 µM (≈ 5.66 µg/mL)

**Q.** What about the MIC [25] of the same compound?
**A.** 5.07 µM (≈ 8 µg/mL)

**Q.** What about the MIC [26] of the same compound?
**A.** 2.54 µM (≈ 4 µg/mL)

**Q.** `CC[C@H](C)[C@H](NC(=O)[C@@H](NC(=O)[C@H](CCCCN)NC(=O)CNC(=O)[C@H](C)NC(=O)[C@H](CC(C)C)NC(=O)[C@H](CC(N)=O)NC(=O)[C@H](CCCCN)NC(=O)[C@H](CC(C)C)NC(=O)[C@@H](NC(=O)[C@H](CC(=O)O)NC(=O)[C@H](Cc1ccccc1)NC(=O)[C@H](Cc1ccccc1)NC(=O)[C@@H](N)Cc1ccccc1)[C@@H](C)O)C(C)C)C(=O)NCC(=O)N[C@@H](C)C(=O)N[C@@H](CC(C)C)C(=O)N[C@H](C(N)=O)[C@@H](C)O` [FFFDTLKNLAGKVIGALT] was tested. Which MIC [6] did it give?
**A.** 125 µM (≈ 244 µg/mL)

**Q.** And the MIC [27]?
**A.** ≥ 33 µM

**Q.** And the MIC [28]?
**A.** ≥ 62 µM

**Q.** And the MIC [10]?
**A.** 62 µM (≈ 121 µg/mL)
